According to patent publication US8343966B2, “Organic compounds” (Novartis AG, priority 2008, dated 2013):

B1: Follistatin: an antagonist of activin signalling (protein, UniProt P19883 30-344, looked up)
Follistatin: GNCWLRQAKNGRCQVLYKTELSKEECCSTGRLSTSWTEEDVNDNTLFKWMIFNGGAPNCIPCKETCENVDCGPGKKCRMNKKNKPRCVCAPDCSNITWKGPVCGLDGKTYRNECALLKARCKEQPELEVQYQGRCKKTCRDVFCPGSSTCVVDQTNNAYCVTCNRICPEPASSEQYLCGNDGVTYSSACHLRKATCLLGRSIGLAYEGKCIKAKSCEDIQCTGGKKCLWDFKVGRGRCSLCDELCPDSKSDEPVCASDNATYASECAMKEAACSSGVLLEVKHSGSCNSISEDTEEEEEDEDQDYSFPISSILEW

Experiments:
[1] = system: dimethylnitrosamine induced liver fibrosis; settings: cited from earlier work
[2] = target: T1, human ALK5 (ALK5 T204D kinase domain) (Homo sapiens, UniProt P36897, T204D); test: ALK5 kinase assay, [33P] phosphate incorporation into casein; assay type: biochemical; settings: casein substrate, 1 μM unlabelled ATP
T1 construct: The kinase domain of human ALK5 (amino acids 200-503); made in house; host or cells: insect cells (baculovirus)
T1 sequence (P36897 200-503 T204D): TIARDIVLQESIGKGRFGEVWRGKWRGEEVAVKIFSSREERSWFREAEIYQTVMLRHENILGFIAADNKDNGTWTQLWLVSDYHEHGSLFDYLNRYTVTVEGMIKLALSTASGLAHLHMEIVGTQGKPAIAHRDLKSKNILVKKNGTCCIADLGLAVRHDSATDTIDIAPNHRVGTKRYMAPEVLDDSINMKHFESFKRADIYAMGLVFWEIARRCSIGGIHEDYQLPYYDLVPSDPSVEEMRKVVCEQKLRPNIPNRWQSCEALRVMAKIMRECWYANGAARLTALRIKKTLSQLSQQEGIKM
Experimental: The kinase activity of ALK5 is assessed by measuring radiolabelled phosphate [33P] incorporation in to the generic substrate, casein. The kinase domain of human ALK5 (amino acids 200-503) is fused to an N-terminal histidine tag. The kinase activity of ALK5 is rendered constitutive via point mutation at amino acid 204 (threonine to aspartate modification, ALK5 T204D) and the kinase construct is engineered to be expressed from a baculovirus expression construct in insect cells. The purified, recombinantly-expressed histidine-tagged ALK5 T204D protein is dissolved at 5.4 mg/ml in 50 mM Tris-HCl pH 8.0, 150 mM NaCl, 5 mM DTT. ALK5 T204D is dissolved to 2.5 μg/ml in assay buffer (Assay buffer: 20 mM Tris-HCl pH 7.4, 10 mM MgCl2, 2 mM MnCl2) on the day of use.
Test compounds and reference compounds are dissolved in assay buffer without DTT containing 5% (v/v) DMSO. Stock solutions of test and reference compounds are diluted in assay buffer with DTT (1.25 mM) containing 4.5% (v/v) DMSO. 10 μl of test or reference compound are added to the appropriate wells of 96 well U-bottomed plate. Total enzyme activity is determined by measuring ALK5 T204D activity in the absence of ALK5 kinase inhibitor reference compounds. Non-specific binding (NSB) is determined by measuring the activity of ALK5 T204D in the presence of ALK5 kinase inhibitor reference compounds. 10 μl of dephosphorylated casein stock solution (dephosphorylated casein is dissolved in ddH2O at 20 mg/ml) is added per well (200 μg/well final assay concentration). 20 μl of ALK5 T204D (2.5 μg/ml solution) is added per well (50 ng/well final assay concentration). The plates are left to incubate at room temperature for 10 minutes.
10 μl of ATP mix is added to the well to initiate the reaction (0.66 nM [^33P]ATP/1 μM unlabelled ATP/well final assay concentration). The ATP mix is prepared as follows, unlabelled ATP (3 mM) is dissolved in ddH2O and pH adjusted to 7.4. The stock concentration of [^33P]ATP is 10 μCi/μl. The appropriate volume of [^33P]ATP is added to unlabelled ATP solution such that the final assay concentration per well is 0.1 μCi. Following addition of the ATP mix, the plates are incubated at room temperature for 50 minutes. The kinase reaction is terminated by the addition of 50 μL Stop Buffer (20 mM Tris-HCl pH 7.4, 10 mM EDTA).
75 μl/well from the reaction plate is transferred to a Multiscreen-IP plate (MultiScreen-IP plates are prepared by added 50 μL of 70% (v/v) ethanol per well and incubated for 5 minutes at room temperature. The ethanol is removed by aspiration via a MultiScreen HTS Vacuum Manifold unit (Millipore, Cat no: MSVMHT500). The plates are washed twice by adding 200 μl/well ddH2O). The MultiScreen-IP plate is incubated at room temperature for 30 minutes to allowing binding of casein to the plate. The MultiScreen-IP plates are washed three times by adding 200 μl/well 100 mM phosphoric acid solution and the gasket is carefully removed from the back of the MultiScreen-IP plate and the plate dried in the oven for 30 minutes. The MultiScreen-IP plate is backsealed, 50 μL of Microscint™20 is added, then the plates are topsealed and radiolabelled casein detected and quantified on a TopCount™ plate-reader using the ^33P scintillation protocol.

bleomycin-treated rats = settings: cited from earlier work
[3] = given therapeutically to rat, 3 weeks treatment

Molecule	IC50 [2] [nM]	further results
c1ccc(-c2cc(-c3cn[nH]c3-c3ccccn3)ccn2)cc1 [GW6604]	–	side effects ([1]; during the 3 weeks treatment): no obvious side effects; inhibition of extracellular matrix deposition [1, 3]: 60%; prevented death rate [1, 3]: 40%
Cc1cc(CN2CCN(C(C)C)CC2)ccc1-c1cncc(-c2cc(-c3ccccn3)nc(C(C)(C)O)c2)c1 [Example 2.90, 2-{5″-[4-(4-Isopropyl-piperazin-1-ylmethyl)-2-methyl-phenyl]-[2,2′;4′,3″]terpyridin-6′-yl}-propan-2-ol]	71	–
CCNc1cc(-c2cncc(-c3cccc(CN4CCN(C(C)C)CC4)c3)c2)cc(-c2ccccn2)n1 [Example 2.114, Ethyl-{5″-[3-(4-isopropyl-piperazin-1-ylmethyl)-phenyl]-[2,2′;4′,3″]terpyridin-6′-yl}-amine]	42	–
CNc1cc(-c2cncc(-c3ccc(C(=O)N4CCN(C)CC4)cc3)c2)cc(-c2ccccn2)n1 [Example 2.106, [4-(6′-Methyl-d3-amino-[2,2′;4′,3″]terpyridin-5″-yl)-phenyl]-(4-methyl-d3-piperazin-1-yl)-methanone]	9	–
Cc1ccc(-c2cc(-c3cccnc3)cc(NCCc3c[nH]c4ccccc34)n2)o1 [Example 1.3, [2-(1H-Indol-3-yl)-ethyl]-[6′-(5-methyl-furan-2-yl)-[3,4′]bipyridinyl-2′-yl]-amine]	23	–
CN(C)[C@@H]1CCN(Cc2ccc(-c3cncc(-c4cc(NC5CC5)nc(-c5ccccn5)c4)c3)cc2)C1 [Example 2.62, Cyclopropyl-{5″-[4-((R)-3-dimethylamino-pyrrolidin-1-ylmethyl)-phenyl]-[2,2′;4′,3″]terpyridin-6′-yl}-amine]	235	–
CCNc1cc(-c2cncc(-c3cc(C)cc(CN)c3)c2)cc(-c2ccccn2)n1 [Example 2.116, [5″-(3-Aminomethyl-5-methyl-phenyl)-[2,2′;4′,3″]terpyridin-6′-yl]-ethyl-amine]	48	–
CNc1cc(-c2cncc(-c3cccc(N4CCCC4)c3)c2)cc(-c2ccccn2)n1 [Example 2.12, Methyl-[5″-(3-pyrrolidin-1-yl-phenyl)-[2,2′;4′,3″]terpyridin-6′-yl]-amine]	209	–
c1ccc(-c2cc(-c3cccnc3)cc(NCCc3c[nH]c4ccccc34)n2)nc1 [Example 1.10, [2-(1H-Indol-3-yl)-ethyl]-[2,2′;4′,3″]terpyridin-6′-yl-amine]	57	–
c1ccc(-c2cc(-c3cccnc3)cc(NCCc3cccc4[nH]ccc34)n2)nc1 [Example 1.6, [2-(1H-Indol-4-yl)-ethyl]-[2,2′;4′,3″]terpyridin-6′-yl-amine]	29	–
CC1CN(C(=O)c2ccc(-c3cncc(-c4cc(-c5ccccn5)nc(C(C)(C)O)c4)c3)cc2)CC(C)N1C (stereo not shown) [Example 2.87, {4-[6′-(1-Hydroxy-1-methyl-ethyl)-[2,2′;4′,3″]terpyridin-5″-yl]-phenyl}-(3,4,5-trimethyl-piperazin-1-yl)-methanone]	139	–
[2H]C([2H])([2H])Nc1cc(-c2cncc(-c3ccc(CN4CCN(C(C)C)CC4)cc3)c2)cc(-c2ccccn2)n1 [Example 2.100, {5″-[4-(4-Isopropyl-piperazin-1-ylmethyl)-phenyl]-[2,2′;4′,3″]terpyridin-6′-yl}-methyl-d3-amine]	11	–
B1	–	lung fibrosis (bleomycin-treated rats): attenuated; number of macrophages and neutrophils in bronchoalveolar lavage (bleomycin-treated rats): significantly reduced
